From patent US20130274127A1, “GENE EXPRESSION MARKERS FOR PREDICTION OF RESPONSE TO PHOSPHOINOSITIDE 3-KINASE INHIBITORS” (GENOMIC HEALTH, INC., priority 2012, published 2013)
Where two headings read alike, the source gives them in different places.

Tests used:
HCT-15 = assay: NCI-60 in vitro drug sensitivity testing (SRB); format: cell-based; conditions: Homo sapiens, HCT-15, read-out: GDC-0941 GI50
Source text: (§1) Cell lines used in this study were obtained from the National Cancer Institute Developmental Therapeutics program (NCI DTP) and were maintained in RPMI 1640 media (Invitrogen, Grand Island, N.Y.) containing 10% Fetal Bovine Serum (ATCC, Manassas, Va.). Cell lines were used within six months of receipt from the NCI DTP, abrogating the need for reauthentication.
(§2) 14, 2010 and Aug. 9, 2010.

HOP-92 = assay: NCI-60 in vitro drug sensitivity testing (SRB); format: cell-based; conditions: Homo sapiens, HOP-92, read-out: GDC-0941 GI50
Source text: as §1, §2

SK-MEL-5 = assay: NCI-60 in vitro drug sensitivity testing (SRB); format: cell-based; conditions: Homo sapiens, SK-MEL-5, read-out: GDC-0941 GI50
Source text: as §1, §2

CCRF-CEM = assay: NCI-60 in vitro drug sensitivity testing (SRB); format: cell-based; conditions: Homo sapiens, read-out: GDC-0941 GI50
Source text: as §1, §2

TK-10 = assay: NCI-60 in vitro drug sensitivity testing (SRB); format: cell-based; conditions: Homo sapiens, TK-10, read-out: GDC-0941 GI50
Source text: as §1, §2

A549/ATCC = assay: NCI-60 in vitro drug sensitivity testing (SRB); format: cell-based; conditions: Homo sapiens, read-out: GDC-0941 GI50
Source text: as §1, §2

SF-268 = assay: NCI-60 in vitro drug sensitivity testing (SRB); format: cell-based; conditions: Homo sapiens, SF-268, read-out: GDC-0941 GI50
Source text: as §1, §2

OVCAR-8 = assay: NCI-60 in vitro drug sensitivity testing (SRB); format: cell-based; conditions: Homo sapiens, OVCAR-8, read-out: GDC-0941 GI50
Source text: as §1, §2

OVCAR-5 = assay: NCI-60 in vitro drug sensitivity testing (SRB); format: cell-based; conditions: Homo sapiens, OVCAR-5, read-out: GDC-0941 GI50
Source text: as §1, §2

HL-60(TB) = assay: NCI-60 in vitro drug sensitivity testing (SRB); format: cell-based; conditions: Homo sapiens, read-out: GDC-0941 GI50
Source text: as §1, §2

LOX IMVI = assay: NCI-60 in vitro drug sensitivity testing (SRB); format: cell-based; conditions: Homo sapiens, read-out: GDC-0941 GI50
Source text: as §1, §2

IGROV1 = assay: NCI-60 in vitro drug sensitivity testing (SRB); format: cell-based; conditions: Homo sapiens, IGROV-1, read-out: GDC-0941 GI50
Source text: as §1, §2

MDA-MB-435 = assay: NCI-60 in vitro drug sensitivity testing (SRB); format: cell-based; conditions: Homo sapiens, MDA-MB-435, read-out: GDC-0941 GI50
Source text: as §1, §2

786-0 = assay: NCI-60 in vitro drug sensitivity testing (SRB); format: cell-based; conditions: Homo sapiens, 786-0, read-out: GDC-0941 GI50
Source text: as §1, §2

SNB-75 = assay: NCI-60 in vitro drug sensitivity testing (SRB); format: cell-based; conditions: Homo sapiens, SNB-75, read-out: GDC-0941 GI50
Source text: as §1, §2

NCI-H522 = assay: NCI-60 in vitro drug sensitivity testing (SRB); format: cell-based; conditions: Homo sapiens, NCI-H522, read-out: GDC-0941 GI50
Source text: as §1, §2

SK-OV-3 = assay: NCI-60 in vitro drug sensitivity testing (SRB); format: cell-based; conditions: Homo sapiens, SK-OV-3, read-out: GDC-0941 GI50
Source text: as §1, §2

NCI-H460 = assay: NCI-60 in vitro drug sensitivity testing (SRB); format: cell-based; conditions: Homo sapiens, NCI-H460, read-out: GDC-0941 GI50
Source text: as §1, §2

NCI-H226 = assay: NCI-60 in vitro drug sensitivity testing (SRB); format: cell-based; conditions: Homo sapiens, NCI-H226, read-out: GDC-0941 GI50
Source text: as §1, §2

SK-MEL-28 = assay: NCI-60 in vitro drug sensitivity testing (SRB); format: cell-based; conditions: Homo sapiens, SK-MEL-28, read-out: GDC-0941 GI50
Source text: as §1, §2

PC-3 = assay: NCI-60 in vitro drug sensitivity testing (SRB); format: cell-based; conditions: Homo sapiens, PC-3, read-out: GDC-0941 GI50
Source text: as §1, §2

DU-145 = assay: NCI-60 in vitro drug sensitivity testing (SRB); format: cell-based; conditions: Homo sapiens, DU-145, read-out: GDC-0941 GI50
Source text: as §1, §2

ACHN = assay: NCI-60 in vitro drug sensitivity testing (SRB); format: cell-based; conditions: Homo sapiens, read-out: GDC-0941 GI50
Source text: as §1, §2

MOLT-4 = assay: NCI-60 in vitro drug sensitivity testing (SRB); format: cell-based; conditions: Homo sapiens, MOLT-4, read-out: GDC-0941 GI50
Source text: as §1, §2

SN12C = assay: NCI-60 in vitro drug sensitivity testing (SRB); format: cell-based; conditions: Homo sapiens, read-out: GDC-0941 GI50
Source text: as §1, §2

M14 = assay: NCI-60 in vitro drug sensitivity testing (SRB); format: cell-based; conditions: Homo sapiens, M14, read-out: GDC-0941 GI50
Source text: as §1, §2

OVCAR-4 = assay: NCI-60 in vitro drug sensitivity testing (SRB); format: cell-based; conditions: Homo sapiens, OVCAR-4, read-out: GDC-0941 GI50
Source text: as §1

MCF7 = assay: NCI-60 in vitro drug sensitivity testing (SRB); format: cell-based; conditions: Homo sapiens, MCF7, read-out: GDC-0941 GI50
Source text: as §1

MDA-MB-231 = assay: NCI-60 in vitro drug sensitivity testing (SRB); format: cell-based; conditions: Homo sapiens, MDA-MB-231, read-out: GDC-0941 GI50
Source text: as §1

[1] = system: NCI-60 tumor cell line collection; assay: NCI-60 in vitro drug sensitivity testing, whole panel; format: cell-based, human; conditions: for GI50: Homo sapiens, all 60 NCI-60 cell lines
Source text: The NCI-60 tumor cell line collection is a panel of 60 diverse human cancer cell lines.
as §1, §2

## CS(=O)(=O)N1CCN(Cc2cc3nc(-c4cccc5[nH]ncc45)nc(N4CCOCC4)c3s2)CC1 [GDC-0941]
HCT-15
  GI50: 209 nM
HOP-92
  GI50: 83 nM
SK-MEL-5
  GI50: 1290 nM
CCRF-CEM
  GI50: 2340 nM
TK-10
  GI50: 550 nM
A549/ATCC
  GI50: 251 nM
SF-268
  GI50: 741 nM
OVCAR-8
  GI50: 646 nM
OVCAR-5
  GI50: 117 nM
HL-60(TB)
  GI50: 58 nM
LOX IMVI
  GI50: 708 nM
IGROV1
  GI50: 26 nM
MDA-MB-435
  GI50: 204 nM
786-0
  GI50: 295 nM
SNB-75
  GI50: 14 nM
NCI-H522
  GI50: 372 nM
SK-OV-3
  GI50: 83 nM
NCI-H460
  GI50: 204 nM
NCI-H226
  GI50: 1230 nM
SK-MEL-28
  GI50: 617 nM
PC-3
  GI50: 138 nM
DU-145
  GI50: 355 nM
ACHN
  GI50: 162 nM
MOLT-4
  GI50: 155 nM
SN12C
  GI50: 229 nM
M14
  GI50: 871 nM
OVCAR-4
  GI50: 3800 nM
MCF7
  GI50: 55 nM
MDA-MB-231
  GI50: 1480 nM
[1]; read-out: GI50 values, range over the panel
  GI50: 11 to 3800 nM
[1]; read-out: Mean GI50 for all cell lines
  GI50: 660 nM
[1]; nine tumor types represented in the NCI-60 cell line panel
  Anti-proliferative activity across the panel: broad anti-proliferative activity
